{"source": "patent US11608501B2", "about": "“Methods for modifying RNA splicing” (PTC THERAPEUTICS, INC., priority 2017, dated 2023)", "key": {"SH-SY5Y cells": {"test_system": "SH-SY5Y cells", "test": "Endpoint RT-PCR of alternatively spliced mRNAs (iExon inclusion) in cultured cells", "assay_type": "cell-based, human", "settings": "cells treated at 10 nM, 1 μM or 10 μM vs DMSO; genes of FIGS. 2A-6A", "protocol": "SH-SY5Y cells derived from a bone marrow biopsy of a patient with neuroblastoma were plated at 600,000 cells/well in 2 mL DMEM with 10% FBS in 6-well plates, and incubated for 4 hours in a cell culture incubator (37° C., 5% CO2, 100% relative humidity). Cells were then treated with Compound 64 at different concentrations (in 0.1% DMSO) for 24 hours. After removal of the supernatant, cells were lysed in RLT buffer with ß-mercaptoethanol and total RNA was extracted according to the manufacturer's protocol (RNeasy Mini Kit, Qiagen, Inc.).\nOne-step RT-PCR was performed using AgPath-ID™ One-Step RT-PCR Reagents (Life Technologies, Inc.) using 50 ng total RNA as input. The following PCR conditions were used: Step 1: 48° C. (15 min), Step 2: 95° C. (10 min), Step 3: 95° C. (30 sec), Step 4: 55° C. (30 sec), Step 5: 68° C. (1 min), repeat Steps 3 to 5 for 34 cycles, then hold at 4° C. The presence of iExons within alternatively spliced mRNAs was identified using primers listed in Tables 13 through 19, which correspond to FIGS. 2, 3, 4 and 5. PCR products were separated on 2% agarose E-gels (Life Technologies, Inc.), stained with ethidium bromide and visualized using a gel imager (UVP). […]"}, "[1]": {"test_system": "RNA having an intronic REMS sequence", "test": "RNA sequencing of compound-treated cells: iExon inclusion or eExon formation (ΔPSI, Fisher's Exact Test)", "assay_type": "cell-based", "settings": "cells treated with Compound 64 (24 nm and 100 nm); genes listed in Table 10; adjusted Fisher's Exact Test p value", "protocol": "Techniques known to one skilled in the art may be used to determine the amount of an RNA transcript(s). In some aspects, the amount of one, two, three or more RNA transcripts is measured using deep sequencing, such as ILLUMINA® RNASeq, ILLUMINA® next generation sequencing (NGS), ION TORRENT® RNA next generation sequencing, 454™ pyrosequencing, or Sequencing by Oligo Ligation Detection (SOLID™), Single Molecule, Real-Time (SMRT) sequencing, Nanopore sequencing. In other aspects, the amount of multiple RNA transcripts is measured using an exon array, such as the GENECHIP® human exon array. In certain aspects, the amount of one, two, three or more RNA transcripts is determined by RT-PCR. In other aspects, the amount of one, two, three or more RNA transcripts is measured by RT-qPCR or digital color-coded barcode technology. Techniques for conducting these assays are known to one skilled in the art. […]\nWhere “U” represents the value for probability of iExon inclusion (a+b)/2/[(a+b)/2+c] in the absence of the compound; and, where “C” represents the value for probability of iExon inclusion (a+b)/2/[(a+b)/2+c] in the presence of the compound. The values for “a” and “b” represent the number of reads supporting inclusion of an iExon in an RNA transcript. […] The value for “c” represents the number of reads supporting exclusion of an iExon. […]"}}, "data": [{"smiles": "CC1(C)CC(Oc2ccc(-c3ccc(-c4cn[nH]c4)cc3O)nn2)CC(C)(C)N1", "note": "[Compound 64, 5-(1H-pyrazol-4-yl)-2-(6-((2,2,6,6-tetramethylpiperidin-4-yl)oxy)pyridazin-3-yl)phenol]", "values": [{"measurement": "iExon-containing PCR product on agarose gel", "setting": "SH-SY5Y cells", "value": "appearance of a slower migrating PCR product containing the intronic-derived exon"}, {"measurement": "effect on inclusion of an iExon or formation of an eExon with a corresponding change in isoform abundance", "setting": "[1]", "value": "statistically significant"}]}]}
